ChEMBL document CHEMBL1201862, “PubChem BioAssay data set” (2004)
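Tested at 5 concentrations; 48 h exposure; 96-well plates; endpoints linearly interpolated, else capped at highest concentration. At the GI50, growth is halved.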 Active and inactive are the calls of the source. Rule as the data show it: active = GI50 up to about 1.1 µM and inactive = higher.

Experiments:
Test in all cases: growth of human tumour cells (NCI), 48 h
DU-145 = tested on: DU-145
PC-3 = tested on: PC-3
COLO 205 = tested on: COLO 205
A498 = tested on: A498
OVCAR-4 = tested on: OVCAR-4
786-0 = tested on: 786-0
BT-549 = tested on: BT-549
SNB-75 = tested on: SNB-75
RXF 393 = tested on: RXF 393
NCI/ADR-RES = tested on: NCI/ADR-RES
KM12 = tested on: KM12
NCI-H522 = tested on: NCI-H522
OVCAR-8 = tested on: OVCAR-8
SR = tested on: SR
LOX IMVI = tested on: LOX IMVI
SK-OV-3 = tested on: SK-OV-3
SN12C = tested on: SN12C
CAKI-1 = tested on: CAKI-1
TK-10 = tested on: TK-10

| SMILES | GI50 (DU-145) | GI50 (PC-3) | GI50 (COLO 205) | GI50 (A498) | GI50 (OVCAR-4) | GI50 (786-0) | GI50 (BT-549) | GI50 (SNB-75) | GI50 (RXF 393) | GI50 (NCI/ADR-RES) | GI50 (KM12) | GI50 (NCI-H522) | GI50 (OVCAR-8) | GI50 (SR) | GI50 (LOX IMVI) | GI50 (SK-OV-3) | GI50 (SN12C) | GI50 (CAKI-1) | GI50 (TK-10) |
| --- | --- | --- | --- | --- | --- | --- | --- | --- | --- | --- | --- | --- | --- | --- | --- | --- | --- | --- | --- |
| CC1(C)CC[C@]2(C(=O)O)CC[C@]3(C)C(=CC[C@@H]4[C@@]5(C)CC[C@H](OC6OC(C(=O)O)C(O)C(O)C6O)C(C)(C)[C@@H]5CC[C@]43C)[C@@H]2C1 (stereo partly specified) | 16.8 µM (inactive) | 18.2 µM (inactive) | 16.9 µM (inactive) | 19.1 µM (inactive) | 16.8 µM (inactive) | 17.5 µM (inactive) | 20.9 µM (inactive) | 18.1 µM (inactive) | 16.7 µM (inactive) | 17.7 µM (inactive) | 16.5 µM (inactive) | 19.4 µM (inactive) | 20.8 µM (inactive) | 15 µM (inactive) | 19 µM (inactive) | 19.5 µM (inactive) | 16.8 µM (inactive) | 18.7 µM (inactive) |  |
| CCCC[Si](CCCC)(CCCC)O[C@@H](/C=C/C(=O)OCC)[C@H](Cc1ccccc1)O[Si](CCCC)(CCCC)CCCC | > 100 µM (inactive) | > 100 µM (inactive) | > 100 µM (inactive) | > 100 µM (inactive) | > 100 µM (inactive) | > 100 µM (inactive) | > 100 µM (inactive) | > 100 µM (inactive) | > 100 µM (inactive) | > 100 µM (inactive) | > 100 µM (inactive) | > 100 µM (inactive) | > 100 µM (inactive) | > 100 µM (inactive) | > 100 µM (inactive) | > 100 µM (inactive) | > 100 µM (inactive) | > 100 µM (inactive) | 40.1 µM (inactive) |
| C/C(=N/NC(=S)Nc1cccc(Cl)c1)c1ccccn1 | 0.532 µM (active) | 0.0255 µM (active) | 0.0372 µM (active) | 1.5 µM (inactive) | 1.05 µM (active) | 0.562 µM (active) | 1.82 µM (inactive) | 2.95 µM (inactive) | 1.52 µM (inactive) | < 0.018 µM (active) | 0.413 µM (active) | 0.06 µM (active) | 0.0834 µM (active) | < 0.0185 µM (active) | 0.125 µM (active) | 0.265 µM (active) | 0.255 µM (active) | 0.348 µM (active) | 0.322 µM (active) |
| Nc1nc(N)c(N=O)c(Nc2ccc(O)cc2)n1 | 34.6 µM (inactive) | 32.2 µM (inactive) | 57.5 µM (inactive) | > 55.8 µM (inactive) | > 48.8 µM (inactive) | > 55.7 µM (inactive) | > 40.4 µM (inactive) | 18.2 µM (inactive) | 93.3 µM (inactive) | 1.58 µM (inactive) | > 57.4 µM (inactive) | 15.9 µM (inactive) | 32 µM (inactive) | 14.8 µM (inactive) | 30.3 µM (inactive) | 18.1 µM (inactive) | 31.1 µM (inactive) | > 45.4 µM (inactive) | > 63 µM (inactive) |
| COc1nc2c(c(=O)[nH]1)N=C(c1ccccc1)CC(c1ccccc1)N2 (stereo unspecified) | 82 µM (inactive) | 57.9 µM (inactive) | > 100 µM (inactive) | > 100 µM (inactive) | 26.9 µM (inactive) | 37.7 µM (inactive) | 37.4 µM (inactive) | 15.3 µM (inactive) | 31 µM (inactive) | 27.3 µM (inactive) | 30.7 µM (inactive) | 35.1 µM (inactive) | 28.1 µM (inactive) | > 10 µM (inactive) | 44.8 µM (inactive) | 58.5 µM (inactive) | 37 µM (inactive) | 91 µM (inactive) |  |
| CCOC(=O)c1[nH]c(Br)c(-c2ccc(Br)cc2)c1Br | 1.66 µM (inactive) | 0.705 µM (active) | 0.385 µM (active) | 1.61 µM (inactive) | 1.3 µM (inactive) | 0.445 µM (active) | 0.535 µM (active) | 0.327 µM (active) | 1.23 µM (inactive) | 0.201 µM (active) | 0.459 µM (active) | 0.378 µM (active) | 0.527 µM (active) | 0.914 µM (active) | 0.446 µM (active) | 1.69 µM (inactive) | 0.45 µM (active) | 0.8 µM (active) | 3.23 µM (inactive) |
| C[C@H](OC(=O)/C=C/c1ccc(O)c(O)c1)[C@H](C)OC(=O)/C=C/c1ccc(O)c(O)c1 | 11.6 µM (inactive) | 13.1 µM (inactive) | 20.3 µM (inactive) | 17.1 µM (inactive) | 5.09 µM (inactive) | 4.73 µM (inactive) | 10.4 µM (inactive) | 15.7 µM (inactive) | 6.87 µM (inactive) | 12.2 µM (inactive) | 5.25 µM (inactive) | 6.98 µM (inactive) | 6.15 µM (inactive) | 8.18 µM (inactive) | 3.35 µM (inactive) | 16.3 µM (inactive) | 11.5 µM (inactive) | 7.89 µM (inactive) | 10 µM (inactive) |
